Results from ChEMBL document CHEMBL3046689, “Volatile aldehydes are promising broad-spectrum postharvest insecticides” (J Agric Food Chem, 2000).
Active and inactive are the calls of the source. No cut-off for these calls is given here.

Legend:
[1] = system: Brassica oleracea var. capitata; test: Phytotoxicity in Brassica oleracea var. capitata (cabbage) assessed as induction of olfactory damage after compound application for 1 hr through two-tier reduced pressure fumigation at 30 mmHg for 0.5 hr and then 760 mmHg for 1.5 hr at 23 +/- 1 degC; format: organism-based; details: in vivo
Vitis vinifera = test: Phytotoxicity in Vitis vinifera assessed as induction of visual damage after compound application for 1 hr through two-tier reduced pressure fumigation at 30 mmHg for 0.5 hr and then 760 mmHg for 1.5 hr at 23 +/- 1 degC; format: organism-based; details: in vivo
Brevicoryne brassicae = test: Insecticidal activity against Brevicoryne brassicae (cabbage aphids); format: functional, organism-based
Lactuca sativa = test: Phytotoxicity in wrapped Lactuca sativa (lettuce) assessed as induction of olfactory damage after compound application for 1 hr through two-tier reduced pressure fumigation at 30 mmHg for 0.5 hr and then 760 mmHg for 1.5 hr at 23 +/- 1 degC; format: organism-based; details: in vivo
Persea americana = test: Phytotoxicity in Persea americana (avocado) assessed as induction of olfactory damage after compound application for 1 hr through two-tier reduced pressure fumigation at 30 mmHg for 0.5 hr and then 760 mmHg for 1.5 hr at 23 +/- 1 degC; format: organism-based; details: in vivo
Malus domestica = test: Phytotoxicity in Malus x domestica (apple) assessed as induction of visual damage after compound application for 1 hr through two-tier reduced pressure fumigation at 30 mmHg for 0.5 hr and then 760 mmHg for 1.5 hr at 23 +/- 1 degC; format: organism-based; details: in vivo
Myzus persicae = test: Insecticidal activity against Myzus persicae (green peach aphid) infested naked lettuce applied for 1 hr through two-tier reduced pressure fumigation at 30 mmHg for 0.5 hr and then 760 mmHg for 1.5 hr at 23 +/- 1 degC measured 24 hr; format: functional, organism-based
Oryza sativa = test: Phytotoxicity in Oryza sativa (rice) assessed as induction of visual damage after compound application for 1 hr through two-tier reduced pressure fumigation at 30 mmHg for 0.5 hr and then 760 mmHg for 1.5 hr at 23 +/- 1 degC; format: organism-based; details: in vivo
[2] = system: Brassica oleracea var. italica; test: Phytotoxicity in Brassica oleracea var. italica after compound application for 1 hr through two-tier reduced pressure fumigation at 30 mmHg for 0.5 hr and then 760 mmHg for 1.5 hr at 23 +/- 1 degC; format: organism-based; details: in vivo
Bemisia = test: Insecticidal activity against Bemisia sp.; format: functional, organism-based

Q: With `CCC=O` [PROPIONALDEHYDE] as the compound, how does the Activity [1] read?
A: Toxic

Q: What about the Activity (Vitis vinifera) of the same compound?
A: Non-toxic

Q: What about the Activity (Brevicoryne brassicae) of the same compound?
A: inactive

Q: What about the Activity (Lactuca sativa) of the same compound?
A: Toxic

Q: And the Activity (Persea americana)?
A: Non-toxic

Q: What about the Activity (Malus domestica) of the same compound?
A: Non-toxic

Q: And the Activity (Myzus persicae)?
A: Active

Q: What about the Activity (Oryza sativa) of the same compound?
A: Non-toxic

Q: And the Activity [2]?
A: Toxic

Q: What about the Activity (Bemisia) of the same compound?
A: Active
